Tests used:
Assay type in all cases: cell-based
Details in all cases: fluorescent calcium assay
TRPML1 = TRPML1 (Homo sapiens, UniProt Q9GZU1); test: Fluorescent TRPML1 assay (Fluo4-AM calcium fluorescence in doxycycline-induced HEK-293 Trex cells)
Summary of the method: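 First, expression of surface-targeted mutant human TRPML1 is induced in HEK-293 Trex cells with 0.5 ug/mL doxycycline the day before. Next, cells take up 1 micromolar Fluo4-AM in Ringer's with 0.1% Pluronic. Finally, they are added to compounds (6 nanomolar–20 micromolar final) in 10 mM calcium Ringer's and fluorescence is read.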

TRPML2 = target: T1, TRPML2 (Homo sapiens, UniProt Q8IZK6); test: Fluorescent TRPML2 assay (performed as for TRPML1, substituting the TRPML2 subtype)
T1 construct: expressed in transfected cells
T1 sequence (Q8IZK6 1-566): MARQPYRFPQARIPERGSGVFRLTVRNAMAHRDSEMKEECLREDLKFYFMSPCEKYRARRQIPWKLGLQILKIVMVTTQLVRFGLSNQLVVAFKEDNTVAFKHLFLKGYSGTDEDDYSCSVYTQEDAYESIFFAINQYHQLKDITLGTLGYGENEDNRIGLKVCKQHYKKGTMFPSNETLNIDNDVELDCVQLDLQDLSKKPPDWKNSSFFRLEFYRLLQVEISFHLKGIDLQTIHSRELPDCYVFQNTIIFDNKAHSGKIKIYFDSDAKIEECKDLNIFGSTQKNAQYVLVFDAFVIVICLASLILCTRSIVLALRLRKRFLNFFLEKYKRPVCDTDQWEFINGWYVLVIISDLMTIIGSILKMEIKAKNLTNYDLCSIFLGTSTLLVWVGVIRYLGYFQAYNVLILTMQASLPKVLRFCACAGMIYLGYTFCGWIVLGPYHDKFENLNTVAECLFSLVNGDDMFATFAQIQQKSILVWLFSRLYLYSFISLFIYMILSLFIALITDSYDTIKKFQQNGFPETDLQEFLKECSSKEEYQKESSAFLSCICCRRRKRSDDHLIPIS
Summary of the method: (§1)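 Calcium-influx readout: Fluo4 fluorescence at 480/540 nm, normalised to positive and negative controls per plate, EC50 fitted by non-linear regression. Cells were HEK-293 Trex stable lines, channel expression induced overnight with 0.5 ug/mL doxycycline; tested at 20 micromolar down to 6 nanomolar final, half-log steps, triplicate.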

TRPML3 = target: T2, TRPML3 (Homo sapiens, UniProt Q8TDD5); test: Fluorescent TRPML3 assay (performed as for TRPML1, substituting the TRPML3 subtype)
T2 construct: expressed in transfected cells
T2 sequence (Q8TDD5 1-553): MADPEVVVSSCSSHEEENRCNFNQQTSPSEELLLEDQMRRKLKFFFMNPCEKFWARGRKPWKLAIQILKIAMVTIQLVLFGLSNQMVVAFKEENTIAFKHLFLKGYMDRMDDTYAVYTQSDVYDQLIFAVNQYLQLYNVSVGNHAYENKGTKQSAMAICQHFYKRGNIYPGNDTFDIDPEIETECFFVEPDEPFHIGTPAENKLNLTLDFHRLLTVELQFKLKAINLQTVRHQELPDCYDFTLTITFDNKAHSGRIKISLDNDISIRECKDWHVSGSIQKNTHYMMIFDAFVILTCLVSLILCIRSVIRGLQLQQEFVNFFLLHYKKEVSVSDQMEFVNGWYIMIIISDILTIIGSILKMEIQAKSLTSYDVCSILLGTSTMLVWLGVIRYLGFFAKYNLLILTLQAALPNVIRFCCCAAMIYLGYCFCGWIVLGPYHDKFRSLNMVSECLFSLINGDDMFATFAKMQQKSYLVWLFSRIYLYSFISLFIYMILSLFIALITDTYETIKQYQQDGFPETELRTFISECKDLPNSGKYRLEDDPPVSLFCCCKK
Summary of the method: as §1

TRPML1, sequence (Q9GZU1 whole entry L15A/L16A/L577A/L578A, form open): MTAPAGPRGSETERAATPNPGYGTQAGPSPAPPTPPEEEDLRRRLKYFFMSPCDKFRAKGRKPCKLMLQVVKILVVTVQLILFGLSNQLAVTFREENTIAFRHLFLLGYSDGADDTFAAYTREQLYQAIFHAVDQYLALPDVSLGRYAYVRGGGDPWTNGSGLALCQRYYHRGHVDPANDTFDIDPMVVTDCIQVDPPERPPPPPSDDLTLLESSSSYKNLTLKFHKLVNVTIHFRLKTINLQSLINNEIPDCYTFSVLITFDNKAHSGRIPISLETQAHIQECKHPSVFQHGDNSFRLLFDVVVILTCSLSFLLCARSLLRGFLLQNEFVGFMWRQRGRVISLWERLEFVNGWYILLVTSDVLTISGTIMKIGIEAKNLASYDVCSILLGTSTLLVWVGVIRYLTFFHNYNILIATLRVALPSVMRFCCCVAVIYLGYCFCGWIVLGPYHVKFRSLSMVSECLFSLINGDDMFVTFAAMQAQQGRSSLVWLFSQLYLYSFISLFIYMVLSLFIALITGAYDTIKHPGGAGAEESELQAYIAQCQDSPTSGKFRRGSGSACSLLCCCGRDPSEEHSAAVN

Row | SMILES | EC50 (TRPML1) | EC50 (TRPML2) | EC50 (TRPML3)
1 | C[C@@H]1CN(c2ncnc3c2c(-c2cccnc2)cn3-c2cccc(Cl)c2)[C@@H](C)CN1C(=O)OC(C)(C)C [Compound 131, tert-butyl (2R,5S)-4-(7-(3-chlorophenyl)-5-(pyridin-3-yl)-7H-pyrrolo[2,3-d]pyrimidin-4-yl)-2,5-dimethylpiperazine-1-carboxylate] | < 100 nM | 100 to 500 nM | < 100 nM
2 | CCOC(=O)N1C[C@H](C)N(c2ncnc3c2c(C2CC2)cn3-c2cccc(Cl)c2)C[C@H]1C [Compound 132, Ethyl (2R,5S)-4-(7-(3-chlorophenyl)-5-cyclopropyl-7H-pyrrolo[2,3-d]pyrimidin-4-yl)-2,5-dimethylpiperazine-1-carboxylate] | < 100 nM | > 2000 nM | 100 to 500 nM
3 | CCOC(=O)N1C[C@H](C)N(c2ncnc3c2c(-c2cccnc2)cn3-c2cccc(Cl)c2)C[C@H]1C [Compound 133, Ethyl (2R,5S)-4-(7-(3-chlorophenyl)-5-(pyridin-3-yl)-7H-pyrrolo[2,3-d]pyrimidin-4-yl)-2,5-dimethylpiperazine-1-carboxylate] | 100 to 500 nM | > 2000 nM | 500 to 2000 nM
4 | C[C@@H]1CN(c2ncnc3c2c(-c2ccccc2F)cn3-c2ccccn2)[C@@H](C)CN1C(=O)OC(C)(C)C [Compound 134, tert-butyl (2R,5S)-4-(5-(2-fluorophenyl)-7-(pyridin-2-yl)-7H-pyrrolo[2,3-d]pyrimidin-4-yl)-2,5-dimethylpiperazine-1-carboxylate] | < 100 nM | 100 to 500 nM | < 100 nM
5 | COc1cncc(-n2cc(-c3ccccc3F)c3c(N4C[C@@H](C)N(C(=O)OC(C)(C)C)C[C@@H]4C)ncnc32)c1 [Compound 135, tert-butyl (2R,5S)-4-(5-(2-fluorophenyl)-7-(5-methoxypyridin-3-yl)-7H-pyrrolo[2,3-d]pyrimidin-4-yl)-2,5-dimethylpiperazine-1-carboxylate] | < 100 nM | 100 to 500 nM | < 100 nM
6 | Cc1ccnc(-n2cc(-c3ccccc3F)c3c(N4C[C@@H](C)N(C(=O)OC(C)(C)C)C[C@@H]4C)ncnc32)c1 [Compound 136, tert-butyl (2R,5S)-4-(5-(2-fluorophenyl)-7-(4-methylpyridin-2-yl)-7H-pyrrolo[2,3-d]pyrimidin-4-yl)-2,5-dimethylpiperazine-1-carboxylate] | < 100 nM | < 100 nM | < 100 nM
7 | CCOC(=O)N1C[C@H](C)N(c2ncnc3c2c(-c2ccccc2F)cn3-c2ccccn2)C[C@H]1C [Compound 137, ethyl (2R,5S)-4-(5-(2-fluorophenyl)-7-(pyridin-2-yl)-7H-pyrrolo[2,3-d]pyrimidin-4-yl)-2,5-dimethylpiperazine-1-carboxylate] | 100 to 500 nM | 500 to 2000 nM | 100 to 500 nM
8 | CCOC(=O)N1C[C@H](C)N(c2ncnc3c2c(-c2ccccc2F)cn3-c2cncc(OC)c2)C[C@H]1C [Compound 138, ethyl (2R,5S)-4-(5-(2-fluorophenyl)-7-(5-methoxypyridin-3-yl)-7H-pyrrolo[2,3-d]pyrimidin-4-yl)-2,5-dimethylpiperazine-1-carboxylate] | 500 to 2000 nM | 500 to 2000 nM | 500 to 2000 nM
9 | C[C@H]1CN(C(=O)OC(C)(C)C)CCN1c1ncnc2c1c(C1CC1)cn2-c1cccc(Cl)c1 [Compound 139, tert-butyl (S)-4-(7-(3-chlorophenyl)-5-cyclopropyl-7H-pyrrolo[2,3-d]pyrimidin-4-yl)-3-methylpiperazine-1-carboxylate] | < 100 nM | < 100 nM | < 100 nM
10 | C[C@H]1CN(C(=O)OC(C)(C)C(F)(F)F)CCN1c1ncnc2c1c(C1CC1)cn2-c1cccc(Cl)c1 [Compound 140, 1,1,1-trifluoro-2-methylpropan-2-yl (S)-4-(7-(3-chlorophenyl)-5-cyclopropyl-7H-pyrrolo[2,3-d]pyrimidin-4-yl)-3-methylpiperazine-1-carboxylate] | < 100 nM | < 100 nM | < 100 nM
11 | C[C@@H]1CN(C(=O)OC(C)(C)C(F)(F)F)CCN1c1ncnc2c1c(C1CC1)cn2-c1ccc(Cl)cc1 [Compound 141, 1,1,1-trifluoro-2-methylpropan-2-yl (R)-4-(7-(4-chlorophenyl)-5-cyclopropyl-7H-pyrrolo[2,3-d]pyrimidin-4-yl)-3-methylpiperazine-1-carboxylate] | < 100 nM | 100 to 500 nM | < 100 nM
12 | C[C@@H]1CN(c2ncnc3c2c(-c2ccccc2F)cn3-c2cccnc2)[C@@H](C)CN1C(=O)OC(C)(C)C [Compound 142, tert-butyl (2R,5S)-4-(5-(2-fluorophenyl)-7-(pyridin-3-yl)-7H-pyrrolo[2,3-d]pyrimidin-4-yl)-2,5-dimethylpiperazine-1-carboxylate] | < 100 nM | 500 to 2000 nM | < 100 nM
13 | CCOC(=O)N1C[C@H](C)N(c2ncnc3c2c(-c2ccccc2F)cn3-c2cccnc2)C[C@H]1C [Compound 143, ethyl (2R,5S)-4-(5-(2-fluorophenyl)-7-(pyridin-3-yl)-7H-pyrrolo[2,3-d]pyrimidin-4-yl)-2,5-dimethylpiperazine-1-carboxylate] | 100 to 500 nM | > 2000 nM | 500 to 2000 nM
14 | CCOC(=O)N1C[C@H](C)N(c2ncnc3c2c(-c2ccccc2F)cn3-c2cc(C)ccn2)C[C@H]1C [Compound 144, ethyl (2R,5S)-4-(5-(2-fluorophenyl)-7-(4-methylpyridin-2-yl)-7H-pyrrolo[2,3-d]pyrimidin-4-yl)-2,5-dimethylpiperazine-1-carboxylate] | < 100 nM | 500 to 2000 nM | < 100 nM
15 | CC(C)(C)OC(=O)N1CCN(c2ncnc3c2c(C2CC2)cn3-c2ccc(Cl)c(F)c2)CC1 [Compound 145, tert-butyl 4-(7-(4-chloro-3-fluorophenyl)-5-cyclopropyl-7H-pyrrolo[2,3-d]pyrimidin-4-yl)piperazine-1-carboxylate] | 100 to 500 nM | < 100 nM | < 100 nM
16 | CC(C)(C)OC(=O)N1CCN(c2ncnc3c2c(C2CC2)cn3-c2cc(F)cc(F)c2)CC1 [Compound 146, tert-butyl 4-(5-cyclopropyl-7-(3,5-difluorophenyl)-7H-pyrrolo[2,3-d]pyrimidin-4-yl)piperazine-1-carboxylate] | 100 to 500 nM | 100 to 500 nM | < 100 nM
17 | C[C@@H]1CN(C(=O)OC(C)(C)C)CCN1c1ncnc2c1c(C1CC1)cn2-c1ccc(Cl)cc1 [Compound 147, tert-butyl (R)-4-(7-(4-chlorophenyl)-5-cyclopropyl-7H-pyrrolo[2,3-d]pyrimidin-4-yl)-3-methylpiperazine-1-carboxylate] | 100 to 500 nM | 100 to 500 nM | < 100 nM
18 | C[C@H]1CN(C(=O)OC(C)(C)C(F)(F)F)CCN1c1ncnc2c1c(C1CC1)cn2-c1ccc(Cl)cc1 [Compound 148, 1,1,1-trifluoro-2-methylpropan-2-yl (S)-4-(7-(4-chlorophenyl)-5-cyclopropyl-7H-pyrrolo[2,3-d]pyrimidin-4-yl)-3-methylpiperazine-1-carboxylate] | < 100 nM | 100 to 500 nM | < 100 nM
19 | Cc1cncc(-n2cc(C3CC3)c3c(N4CCN(C(=O)OC(C)(C)C)CC4)ncnc32)c1 [Compound 149, tert-butyl 4-(5-cyclopropyl-7-(5-methylpyridin-3-yl)-7H-pyrrolo[2,3-d]pyrimidin-4-yl)piperazine-1-carboxylate] | 100 to 500 nM | 500 to 2000 nM | 100 to 500 nM
20 | Cc1cncc(-n2cc(C3CC3)c3c(N4CCN(C(=O)OC(C)(C)C)C[C@@H]4C)ncnc32)c1 [Compound 150, tert-butyl (S)-4-(5-cyclopropyl-7-(5-methylpyridin-3-yl)-7H-pyrrolo[2,3-d]pyrimidin-4-yl)-3-methylpiperazine-1-carboxylate] | 100 to 500 nM | 500 to 2000 nM | 100 to 500 nM
